Experiments:
[1] = ACE complex stability, SBE-β-CD DS~10.4; type: physicochemical; settings: sulfobutyl-ether-β-CD DS~10.4, 30 mM phosphate buffer pH 7.4, 25 °C
Description: To investigate the CD complexation behavior of the four kratom alkaloids, we aimed to develop an ACE method for a systematic comparative study. […] To ensure sufficient buffer capacity and to avoid excessive current and Joule heat generation, the buffer concentration was set to 30 mM, and the applied voltage was 15 kV.
The ACE experiments were performed by using Agilent 7100 and HP^3DCE instruments (Agilent Technologies, Waldbronn, Germany). Untreated fused silica capillaries (total length of 48.5 cm, effective length of 40 cm, inner diameter of 50 μm) were purchased from Agilent Technologies. The new capillaries were conditioned with a 1 M NaOH wash for 1 h, followed by a 30 min wash each with 0.1 M NaOH and purified water. Prior to all runs, the capillary was preconditioned by rinsing with background electrolyte for 3 min. During the measurements, 30 mM phosphate buffer at pH 7.4 (30 mM Na2HPO4-NaOH) was used. The background electrolyte contained CDs at various concentrations. […] The electropherograms were recorded at four wavelengths (200 nm, 210 nm, 215 nm, and 220 nm), and the data were evaluated at 215 nm. […] The measurements were evaluated using Origin and CEval software (v. 0.6i3). […]

[2] = phase-solubility study, RAME-β-CD; type: physicochemical; settings: 30 mM phosphate buffer pH 7.4, room temperature
Description: Based on our ACE measurements, the promising CDs were selected for phase-solubility studies, along with the most widely used CD excipients, to investigate the effect of CD type and its concentration on mitragynine solubility. The experiments were conducted under conditions similar to those in the ACE measurements, applying 30 mM phosphate buffer (pH 7.4) and room temperature.
UV spectra and chromatograms were recorded at 200–400 nm, and the chromatogram obtained at 226 nm was used for quantitative analyses.
Solubility measurements were performed according to Higuchi and Connors. To each 1 mg mitragynine sample, the selected cyclodextrins were added. The final concentration of the CDs was in the range of 0–1 (m/v) %. Suspensions were shaken at room temperature for 24 h and filtered using 0.22 μm filters. The mitragynine concentration in the samples was determined by the above-described UHPLC-UV method. The solubility diagrams were constructed, and the stability constant (Kstab) and complexation efficacy (CE) were calculated using the following formulas:(5) Kstab=slope/S0(1−slope) (6) CE=slope/1−slope where S0 is the intrinsic solubility of a poorly soluble drug. The experiments were performed in a 30 mM phosphate buffer (pH 7.4).

[3] = parameters: method as in PMID 25793541; settings: at neutral pH; cited from earlier work

Row | Compound | complex stability constant (Kstab) with SBE-β-CD DS~10.4 [1] | Kstab with RAME-β-CD (phase solubility) ([2]; 24 h, CD 0–1 (m/v) %) [M⁻¹] | complexation efficacy (CE) with RAME-β-CD ([2]; phase solubility) | aqueous solubility [3] [µg/mL]
1 | CC[C@H]1CN2CCc3c([nH]c4cccc(OC)c34)[C@@H]2C[C@@H]1/C(=C\OC)C(=O)OC [Speciogynine, speciogynine] | ~10,000 M^−1 | – | – | –
2 | mitragynine | – | 60 | 0.0023 | 88

— article PMC11597089, “Kratom Alkaloids: A Blood–Brain Barrier Specific Membrane Permeability Assay-Guided Isolation and Cyclodextrin Complexation Study” (Molecules, 2024)
